Reference: patent publication US9840509B2, “Heterocyclic compounds” (CADILA HEALTHCARE LIMITED, priority 2014, dated 2017)

Legend:
[1] = molecular target: T1, recombinant purified human BTK (Homo sapiens, UniProt Q06187); assay: In vitro BTK kinase assay on ADP Glo platform; format: biochemical; settings: 2 hr room temperature, read-out: In-vitro BTK inhibitory activity: IC50
T1 construct: purchased SignalChem, USA
Experimental: Testing of Compounds of the Invention Biological Studies: In vitro BTK Inhibitory Activity Assay:
In vitro BTK inhibitory activity of test compounds were screened using BTK kinase assay on ADP Glo platform (Li, H., Totoritis, R. D., Lor, L. A., Schwartz, B., Caprioli, P., Jurewicz, A. J and Zhang, G., Assay Drug Dev. Technol., 2009, 7(6), 598-605). Briefly, fixed amount of recombinant purified human BTK (3 ng/reaction from SignalChem, USA) were incubated with increasing concentration of test compounds, in 1× kinase reaction buffer (40 mM Tris-Cl, pH7.5, 20 mM MgCl2, 2 mM MnCl2, 0.1 mg/ml BSA and 50 μM DTT). Enzymatic reaction was initiated by adding a substrate cocktail containing 50 µM of ATP (final concentration) and […] of polyGln4Tyr1 (Signal Chem) in total 25 μl of reaction, in round bottom white 96 well plate. The reaction mixture was incubated at room temperature for 2 hr. After 2 hr of incubation, 10 μl of the reaction mix was mixed with […] of ADP Glo reagent, in another round bottom white 96 well plate and incubated at room temperature for 40 min. This was followed by addition of kinase detection reagent (20 μl per reaction) and incubation at room temperature for 30 min. Finally, plate was read for luminescence at an integration time of 500 millisecond per well. Data were plotted taking Enzyme with no inhibitor set as the 100% kinase activity and for dose response curve, % Kinase activity was plotted against conc on Log scale and IC50 was determined by non linear curve fitting method using GraphPad Prism software 6. The in vitro BTK inhibitory activity (IC50) for representative compounds are listed in […]

CYP 1A2 = molecular target: T2, CYP 1A2 (Homo sapiens, UniProt P05177); assay: CYP inhibition in human liver microsomes, 1A2; format: in vitro ADME; settings: pH 7.4, @ 10 μM concn
T2 construct: from tissue; host or cells: human liver microsomes
T2 sequence (P05177 1-516): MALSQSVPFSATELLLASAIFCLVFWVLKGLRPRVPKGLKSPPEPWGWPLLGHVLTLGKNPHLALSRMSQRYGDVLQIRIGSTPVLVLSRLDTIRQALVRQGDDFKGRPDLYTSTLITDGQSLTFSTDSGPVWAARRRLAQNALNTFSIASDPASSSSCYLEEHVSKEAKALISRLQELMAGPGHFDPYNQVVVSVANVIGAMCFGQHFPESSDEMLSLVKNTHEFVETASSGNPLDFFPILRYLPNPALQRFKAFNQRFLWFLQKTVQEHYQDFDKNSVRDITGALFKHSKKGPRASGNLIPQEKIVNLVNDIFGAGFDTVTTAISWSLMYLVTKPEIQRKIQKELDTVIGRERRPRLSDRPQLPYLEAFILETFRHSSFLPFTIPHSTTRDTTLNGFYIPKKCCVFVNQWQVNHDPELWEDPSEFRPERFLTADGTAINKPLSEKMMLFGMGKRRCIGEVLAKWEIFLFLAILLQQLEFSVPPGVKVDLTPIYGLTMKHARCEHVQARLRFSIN
Experimental: (§1) CYP Inhibition Studies: CYP inhibition studies were performed with test compounds, at two concentrations ([…] and 10 μM), using human liver microsomes (Yao, M., Zhu, M., Sinz, M. W., Zhang, H., Humphreys, W. F., Rodrigues, A. D and Dai, R., Journal of Pharmaceutical and Biomedical Analysis, 2007, 44, 211-223; Walsky, R. L and Obach, R. S., Drug Metab. Dispos., 2004, 32, 647-660). Human liver microsomes were mixed with 100 mM phosphate buffer (pH 7.4) and probe substrate and warmed to […] in microcentrifuge tubes. Aliquots of this mixture (499 μL) were transferred to each pre-labeled microcentrifuge tubes, followed by addition of the 1 μL of inhibitors (test compound/CYP-specific positive control inhibitor) or control solvent (DMSO). Aliquots of this mixture (90 μL) were transferred to each pre-labeled microcentrifuge tubes in duplicate. Final solvent concentrations were 0.2% (v/v) or less. Incubations were commenced with the addition of 10 μL NADPH stock (assay concentration, 1 mM) to a final incubation volume of 100 μL and incubated in shaking water bath (at 37° C. and 100 rpm), for the period defined in Tables 1. Incubations were terminated by addition of 400 μL of termination solvent (CH3CN) containing internal standard. The terminated samples were vortex-mixed, centrifuged at 10000 rpm for 5 min and supernatant transferred into HPLC vials for LC-MS/MS analysis to monitor metabolites produced by marker CYP reactions. […] Animals

CYP 2C8 = molecular target: T3, CYP 2C8 (Homo sapiens, UniProt P10632); assay: CYP inhibition in human liver microsomes, 2C8; format: in vitro ADME; settings: pH 7.4, @ 10 μM concn
T3 construct: from tissue; host or cells: human liver microsomes
T3 sequence (P10632 1-490): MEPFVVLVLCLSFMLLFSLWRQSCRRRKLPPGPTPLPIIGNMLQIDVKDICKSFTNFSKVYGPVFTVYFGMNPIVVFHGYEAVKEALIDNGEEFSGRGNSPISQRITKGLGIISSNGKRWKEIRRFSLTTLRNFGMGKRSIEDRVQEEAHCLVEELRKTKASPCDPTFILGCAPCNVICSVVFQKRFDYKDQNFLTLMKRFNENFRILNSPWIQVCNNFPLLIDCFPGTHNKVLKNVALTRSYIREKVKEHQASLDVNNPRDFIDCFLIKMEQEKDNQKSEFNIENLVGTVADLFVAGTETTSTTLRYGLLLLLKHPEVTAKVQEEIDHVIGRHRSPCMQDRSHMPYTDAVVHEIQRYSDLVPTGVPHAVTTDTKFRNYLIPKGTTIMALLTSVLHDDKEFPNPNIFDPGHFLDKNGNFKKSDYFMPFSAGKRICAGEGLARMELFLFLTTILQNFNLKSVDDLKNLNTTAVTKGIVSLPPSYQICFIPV
Experimental: as §1

CYP 2C9 = molecular target: T4, CYP 2C9 (Homo sapiens, UniProt P11712); assay: CYP inhibition in human liver microsomes, 2C9; format: in vitro ADME; settings: pH 7.4, @ 10 μM concn
T4 construct: from tissue; host or cells: human liver microsomes
Experimental: as §1

CYP 2C19 = molecular target: T5, CYP 2C19 (Homo sapiens, UniProt P33261); assay: CYP inhibition in human liver microsomes, 2C19; format: in vitro ADME; settings: pH 7.4, @ 10 μM concn
T5 construct: from tissue; host or cells: human liver microsomes
Experimental: as §1

CYP 2D6 = molecular target: T6, CYP 2D6 (Homo sapiens, UniProt P10635); assay: CYP inhibition in human liver microsomes, 2D6; format: in vitro ADME; settings: pH 7.4, @ 10 μM concn
T6 construct: from tissue; host or cells: human liver microsomes
Experimental: as §1

CYP 3A4 = molecular target: T7, CYP 3A4 (Homo sapiens, UniProt P08684); assay: CYP inhibition in human liver microsomes, 3A4; format: in vitro ADME; settings: pH 7.4, @ 10 μM concn
T7 construct: from tissue; host or cells: human liver microsomes
Experimental: as §1

T5 sequence (P33261 whole entry): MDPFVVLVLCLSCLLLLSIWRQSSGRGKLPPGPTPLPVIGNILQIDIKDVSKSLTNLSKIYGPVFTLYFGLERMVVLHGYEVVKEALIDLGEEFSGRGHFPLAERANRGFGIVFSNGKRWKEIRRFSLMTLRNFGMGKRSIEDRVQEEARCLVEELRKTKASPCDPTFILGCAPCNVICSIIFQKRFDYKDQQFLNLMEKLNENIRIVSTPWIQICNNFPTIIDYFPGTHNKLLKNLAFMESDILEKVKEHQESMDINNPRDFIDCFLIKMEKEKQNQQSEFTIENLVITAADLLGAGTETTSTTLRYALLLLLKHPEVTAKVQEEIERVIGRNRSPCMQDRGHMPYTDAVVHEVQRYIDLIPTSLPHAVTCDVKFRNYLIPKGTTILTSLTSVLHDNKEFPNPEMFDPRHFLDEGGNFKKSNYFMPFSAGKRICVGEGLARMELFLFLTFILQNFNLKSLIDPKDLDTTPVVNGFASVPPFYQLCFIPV
T6 sequence (P10635 whole entry): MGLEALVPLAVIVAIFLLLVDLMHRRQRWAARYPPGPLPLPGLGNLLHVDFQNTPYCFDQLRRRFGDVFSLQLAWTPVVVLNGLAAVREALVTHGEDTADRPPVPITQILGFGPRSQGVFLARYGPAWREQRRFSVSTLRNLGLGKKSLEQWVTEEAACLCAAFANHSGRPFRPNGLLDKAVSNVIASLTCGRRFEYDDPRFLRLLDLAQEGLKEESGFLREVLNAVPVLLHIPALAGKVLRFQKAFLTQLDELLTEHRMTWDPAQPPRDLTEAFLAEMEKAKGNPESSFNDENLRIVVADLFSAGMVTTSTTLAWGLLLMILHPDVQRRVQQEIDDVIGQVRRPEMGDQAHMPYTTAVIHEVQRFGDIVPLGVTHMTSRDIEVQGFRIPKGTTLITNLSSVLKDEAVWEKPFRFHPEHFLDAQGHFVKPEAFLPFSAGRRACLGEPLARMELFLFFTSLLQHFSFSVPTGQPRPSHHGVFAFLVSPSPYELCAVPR
T7 sequence (P08684 whole entry): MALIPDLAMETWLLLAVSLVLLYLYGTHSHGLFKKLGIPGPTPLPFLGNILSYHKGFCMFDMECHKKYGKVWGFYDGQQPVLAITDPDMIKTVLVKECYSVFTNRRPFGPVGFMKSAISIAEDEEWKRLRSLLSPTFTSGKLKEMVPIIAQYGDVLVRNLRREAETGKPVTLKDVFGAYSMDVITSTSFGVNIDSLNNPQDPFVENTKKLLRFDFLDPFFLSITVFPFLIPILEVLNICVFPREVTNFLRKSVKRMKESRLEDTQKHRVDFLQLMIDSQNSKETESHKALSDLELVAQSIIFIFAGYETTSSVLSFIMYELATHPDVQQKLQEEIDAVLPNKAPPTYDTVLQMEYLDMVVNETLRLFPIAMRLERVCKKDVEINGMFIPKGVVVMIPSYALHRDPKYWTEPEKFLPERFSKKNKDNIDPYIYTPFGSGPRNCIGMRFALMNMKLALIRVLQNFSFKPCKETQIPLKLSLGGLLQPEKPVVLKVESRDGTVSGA
T1 sequence (Q06187 whole entry): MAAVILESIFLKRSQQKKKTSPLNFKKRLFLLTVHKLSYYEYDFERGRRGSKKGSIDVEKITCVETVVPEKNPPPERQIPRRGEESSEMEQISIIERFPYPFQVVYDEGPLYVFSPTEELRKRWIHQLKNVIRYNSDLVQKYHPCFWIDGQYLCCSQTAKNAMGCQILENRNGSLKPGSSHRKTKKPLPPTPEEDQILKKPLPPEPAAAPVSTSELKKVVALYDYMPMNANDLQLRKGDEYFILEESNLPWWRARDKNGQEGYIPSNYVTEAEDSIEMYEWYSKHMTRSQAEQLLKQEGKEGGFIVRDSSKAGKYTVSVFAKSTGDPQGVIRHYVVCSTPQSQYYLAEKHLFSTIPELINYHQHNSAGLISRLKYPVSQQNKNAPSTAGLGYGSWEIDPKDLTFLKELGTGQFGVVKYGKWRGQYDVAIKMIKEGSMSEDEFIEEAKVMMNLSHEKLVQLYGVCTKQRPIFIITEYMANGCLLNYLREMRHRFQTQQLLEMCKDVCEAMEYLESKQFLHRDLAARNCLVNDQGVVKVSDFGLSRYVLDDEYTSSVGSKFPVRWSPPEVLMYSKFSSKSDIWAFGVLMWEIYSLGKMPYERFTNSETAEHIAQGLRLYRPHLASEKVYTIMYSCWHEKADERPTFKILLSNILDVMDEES
T4 sequence (P11712 whole entry): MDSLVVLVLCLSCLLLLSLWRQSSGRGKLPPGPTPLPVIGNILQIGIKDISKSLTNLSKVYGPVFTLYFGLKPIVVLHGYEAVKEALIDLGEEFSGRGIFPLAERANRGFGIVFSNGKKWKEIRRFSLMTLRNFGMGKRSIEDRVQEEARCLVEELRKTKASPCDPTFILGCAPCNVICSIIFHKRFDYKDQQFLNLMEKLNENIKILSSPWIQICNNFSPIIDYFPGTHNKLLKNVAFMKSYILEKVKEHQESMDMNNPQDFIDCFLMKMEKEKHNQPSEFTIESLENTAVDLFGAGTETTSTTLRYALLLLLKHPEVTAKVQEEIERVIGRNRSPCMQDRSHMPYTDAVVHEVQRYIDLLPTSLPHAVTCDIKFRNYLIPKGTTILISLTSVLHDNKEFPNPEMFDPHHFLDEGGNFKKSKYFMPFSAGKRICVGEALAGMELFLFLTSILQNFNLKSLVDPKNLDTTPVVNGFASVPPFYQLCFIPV

SMILES	IC50 [1]	inhibition at 10 μM (CYP 1A2)	inhibition at 10 μM (CYP 2C8)	inhibition at 10 μM (CYP 2C9)	inhibition at 10 μM (CYP 2C19)	inhibition at 10 μM (CYP 2D6)	inhibition at 10 μM (CYP 3A4)
C=CC(=O)N1CC2CC(n3nc(-c4ccc5ocnc5c4)c4c(N)ncnc43)CC2C1 (centres unmarked) [Compound 22, 1-(5-(4-amino-3-(benzo[d]oxazol-5-yl)-1H-pyrazolo[3,4-d]pyrimidin-1-yl)hexahydrocyclopenta[c]pyrrol-2(1H)-yl)prop-2-en-1-one]	40 nM	< 50%	< 50%	< 50%	< 50%	> 50%	< 50%
C=CC(=O)N1CC2CC(n3nc(-c4ccc5oc(-c6ccccc6)nc5c4)c4c(N)ncnc43)CC2C1 (centres unmarked) [Compound 23, 1-(5-(4-amino-3-(2-phenylbenzo[d]oxazol-5-yl)-1H-pyrazolo[3,4-d]pyrimidin-1-yl)hexahydrocyclopenta[c]pyrrol-2(1H)-yl)prop-2-en-1-one]	48 nM	< 50%	> 50%	> 50%	< 50%	< 50%	> 50%
CN(C)C/C=C/C(=O)N1CC2CC(n3nc(-c4ccc(Oc5ccccc5)cc4)c4c(N)ncnc43)CC2C1 (centres unmarked) [Compound 24, (E)-1-(5-(4-amino-3-(4-phenoxyphenyl)-1H-pyrazolo[3,4-d]pyrimidin-1-yl)hexahydrocyclopenta[c]pyrrol-2(1H)-yl)-4-(dimethylamino)but-2-en-1-one]	2.5 nM	< 50%	< 50%	< 50%	< 50%	< 50%	< 50%
C=CC(=O)N1CC2CC(n3nc(-c4ccc(-c5nnc(-c6ccccn6)o5)cc4)c4c(N)ncnc43)CC2C1 (centres unmarked) [Compound 26, 1-(5-(4-amino-3-(4-(5-(pyridin-2-yl)-1,3,4-oxadiazol-2-yl)phenyl)-1H-pyrazolo[3,4-d]pyrimidin-1-yl)hexahydrocyclopenta[c]pyrrol-2(1H)-yl)prop-2-en-1-one]	1.1 nM	< 50%	< 50%	< 50%	< 50%	< 50%	< 50%
C=CC(=O)N1CC2CC(n3c(Br)c(-c4ccc(Oc5ccccc5)cc4)c4c(N)ncnc43)CC2C1 (centres unmarked) [Compound 27, 1-(5-(4-amino-6-bromo-5-(4-phenoxyphenyl)-7H-pyrrolo[2,3-d]pyrimidin-7-yl)hexahydrocyclopenta[c]pyrrol-2(1H)-yl)prop-2-en-1-one]	1.6 nM	< 50%	< 50%	< 50%	< 50%	< 50%	< 50%
N#C/C(=C\C1CC1)C(=O)N1CC2CC(n3nc(-c4ccc(Oc5ccccc5)cc4)c4c(N)ncnc43)CC2C1 (centres unmarked) [Compound 28, (E)-2-(5-(4-amino-3-(4-phenoxyphenyl)-1H-pyrazolo[3,4-d]pyrimidin-1-yl)octahydrocyclopenta[c]pyrrole-2-carbonyl)-3-cyclopropylacrylonitrile]	16 nM	< 50%	< 50%	> 50%	< 50%	< 50%	> 50%
C=CC(=O)N1CC2CC(n3nc(-c4ccc(C(=O)Nc5cc(C)ccn5)c(OC)c4)c4c(N)ncnc43)CC2C1 (centres unmarked) [Compound 29, 4-(1-(2-acryloyloctahydrocyclopenta[c]pyrrol-5-yl)-4-amino-1H-pyrazolo[3,4-d]pyrimidin-3-yl)-2-methoxy-N-(4-methylpyridin-2-yl)benzamide]	1.2 nM	< 50%	< 50%	< 50%	< 50%	< 50%	< 50%

Now from value to molecule:

IC50 [1]	inhibition at 10 μM (CYP 1A2)	inhibition at 10 μM (CYP 2C8)	inhibition at 10 μM (CYP 2C9)	inhibition at 10 μM (CYP 2C19)	inhibition at 10 μM (CYP 2D6)	inhibition at 10 μM (CYP 3A4)	SMILES
6 nM	< 50%	< 50%	< 50%	< 50%	< 50%	< 50%	C=CC(=O)N1CC2CC(n3nc(-c4ccc(C(=O)Nc5cc(C)ccn5)cc4)c4c(N)ncnc43)CC2C1 (centres unmarked) [Compound 30, 4-(1-(2-acryloyloctahydrocyclopenta[c]pyrrol-5-yl)-4-amino-1H-pyrazolo[3,4-d]pyrimidin-3-yl)-N-(4-methylpyridin-2-yl)benzamide]
0.6 nM	< 50%	< 50%	< 50%	< 50%	< 50%	< 50%	C=CC(=O)N1CC2CC(n3cc(-c4ccc(Oc5ccccc5)cc4)c4c(N)ncnc43)CC2C1 (centres unmarked) [Compound 31, 1-(5-(4-amino-5-(4-phenoxyphenyl)-7H-pyrrolo[2,3-d]pyrimidin-7-yl)hexahydrocyclopenta[c]pyrrol-2(1H)-yl)prop-2-en-1-one]
1.5 nM	< 50%	< 50%	< 50%	< 50%	< 50%	< 50%	C=CS(=O)(=O)N1CC2CC(n3c(=O)n(-c4ccc(Oc5ccccc5)cc4)c4c(N)ncnc43)CC2C1 (centres unmarked) [Compound 33, 6-amino-7-(4-phenoxyphenyl)-9-(2-(vinylsulfonyl)octahydrocyclopenta[c]pyrrol-5-yl)-7H-purin-8(9H)-one]
359 nM	> 50%	< 50%	< 50%	> 50%	< 50%	> 50%	C=CC(=O)N1CC2CC(n3nc(-c4ccc(C(=O)Nc5nc6ccccc6s5)cc4)c4c(N)ncnc43)CC2C1 (centres unmarked) [Compound 34, 4-(1-(2-acryloyloctahydrocyclopenta[c]pyrrol-5-yl)-4-amino-1H-pyrazolo[3,4-d]pyrimidin-3-yl)-N-(benzo[d]thiazol-2-yl)benzamide]
